Results published in ChEMBL document CHEMBL4507273 (2021).

Columns and labels:
[1] = target: Ribosomal protein S6 kinase alpha-6 (Homo sapiens) (UniProt Q9UK32); conditions: Compound concentration 1000.0 nM
[2] = target: Cyclin-dependent kinase 14 (Homo sapiens) (UniProt O94921); conditions: Compound concentration 1000.0 nM
[3] = target: SNF-related serine/threonine-protein kinase (Homo sapiens) (UniProt Q9NRH2); conditions: Compound concentration 1000.0 nM
[4] = target: Mitogen-activated protein kinase kinase kinase 13 (Homo sapiens) (UniProt O43283); conditions: Compound concentration 1000.0 nM
[5] = test system: Tyrosine-protein kinase ABL1 (Homo sapiens), P00519 [Q252H]; conditions: Compound concentration 1000.0 nM
[6] = target: Calcium/calmodulin-dependent protein kinase kinase 1 (Homo sapiens) (UniProt Q8N5S9); conditions: Compound concentration 1000.0 nM
[7] = target: Ephrin type-A receptor 2 (Homo sapiens) (UniProt P29317); conditions: Compound concentration 1000.0 nM
[8] = target: T1, 5-hydroxytryptamine receptor 2A (Homo sapiens, UniProt P28223); test: GPCRScan assay: inhibition of 5-HT2A; set-up: radioligand conc. used [nm] 1.2 – 2.4, parental cells HEKT
[9] = target: Tyrosine-protein kinase Srms (Homo sapiens) (UniProt Q9H3Y6); conditions: Compound concentration 1000.0 nM
[10] = target: Mitogen-activated protein kinase 10 (Homo sapiens) (UniProt P53779); conditions: Compound concentration 1000.0 nM
[11] = target: Calcium/calmodulin-dependent protein kinase type 1D (Homo sapiens) (UniProt Q8IU85); conditions: Compound concentration 1000.0 nM
[12] = test system: Phosphatidylinositol 4,5-bisphosphate 3-kinase catalytic subunit alpha isoform (Homo sapiens), P42336 [E542K]; conditions: Compound concentration 1000.0 nM
[13] = target: 5-hydroxytryptamine receptor 1B (Homo sapiens, UniProt P28222); conditions: Compound concentration 10.0 uM
[14] = target: Proto-oncogene tyrosine-protein kinase receptor Ret (Homo sapiens) (UniProt P07949); conditions: Compound concentration 1000.0 nM
[15] = target: Receptor tyrosine-protein kinase erbB-3 (Homo sapiens) (UniProt P21860); conditions: Compound concentration 1000.0 nM
[16] = target: Myosin light chain kinase 2, skeletal/cardiac muscle (Homo sapiens) (UniProt Q9H1R3); conditions: Compound concentration 1000.0 nM
[17] = target: Non-receptor tyrosine-protein kinase TYK2 (Homo sapiens) (UniProt P29597); conditions: Compound concentration 1000.0 nM
[18] = target: Ribosomal protein S6 kinase alpha-3 (Homo sapiens) (UniProt P51812); conditions: Compound concentration 1000.0 nM
[19] = target: Casein kinase I isoform delta (Homo sapiens) (UniProt P48730); conditions: Compound concentration 1000.0 nM
[20] = target: Tyrosine-protein kinase Mer (Homo sapiens) (UniProt Q12866); conditions: Compound concentration 1000.0 nM
[21] = target: T1, 5-hydroxytryptamine receptor 2A; conditions: Compound concentration 10.0 uM
[22] = test system: Phosphatidylinositol 4,5-bisphosphate 3-kinase catalytic subunit alpha isoform (Homo sapiens), P42336 [I800L]; conditions: Compound concentration 1000.0 nM
[23] = test system: Tyrosine-protein kinase ABL1 (Homo sapiens), P00519 [F317L]; conditions: Compound concentration 1000.0 nM
[24] = test system: Tyrosine-protein kinase ABL1 (Homo sapiens), P00519 [Q252H]; conditions: Compound concentration 1000.0 nM; remark: listed apart in the source
[25] = target: D(3) dopamine receptor (Homo sapiens, UniProt P35462); conditions: Compound concentration 10.0 uM
[26] = target: Calcium/calmodulin-dependent protein kinase type 1B (Homo sapiens) (UniProt Q6P2M8); conditions: Compound concentration 1000.0 nM
[27] = target: Tyrosine-protein kinase JAK1 (Homo sapiens) (UniProt P23458); conditions: Compound concentration 1000.0 nM
[28] = target: Serine/threonine-protein kinase Sgk1 (Homo sapiens) (UniProt O00141); conditions: Compound concentration 1000.0 nM
[29] = target: Rhodopsin kinase GRK1 (Homo sapiens) (UniProt Q15835); conditions: Compound concentration 1000.0 nM
[30] = target: Myosin light chain kinase, smooth muscle (Homo sapiens) (UniProt Q15746); conditions: Compound concentration 1000.0 nM
[31] = target: ALK tyrosine kinase receptor (Homo sapiens) (UniProt Q9UM73); conditions: Compound concentration 1000.0 nM
[32] = target: Calcium/calmodulin-dependent protein kinase kinase 2 (Homo sapiens) (UniProt Q96RR4); conditions: Compound concentration 1000.0 nM
[33] = test system: Receptor-type tyrosine-protein kinase FLT3 (Homo sapiens), P36888 [UNDEFINED MUTATION]; conditions: Compound concentration 1000.0 nM
[34] = target: Muscarinic acetylcholine receptor M3 (Homo sapiens, UniProt P20309); conditions: Compound concentration 10.0 uM
[35] = target: Aurora kinase C (Homo sapiens) (UniProt Q9UQB9); conditions: Compound concentration 1000.0 nM
[36] = target: Tyrosine-protein kinase JAK1 (Homo sapiens) (UniProt P23458); conditions: Compound concentration 1000.0 nM; remark: listed apart in the source
[37] = target: Calcium-dependent protein kinase 1 (Plasmodium falciparum) (UniProt P62344); conditions: Compound concentration 1000.0 nM
[38] = target: Macrophage colony-stimulating factor 1 receptor (Homo sapiens) (UniProt P07333); conditions: Compound concentration 1000.0 nM
[39] = target: Serine/threonine-protein kinase PLK1 (Homo sapiens) (UniProt P53350); conditions: Compound concentration 1000.0 nM
[40] = test system: Phosphatidylinositol 4,5-bisphosphate 3-kinase catalytic subunit alpha isoform (Homo sapiens), P42336 [C420R]; conditions: Compound concentration 1000.0 nM
[41] = test system: Tyrosine-protein kinase ABL1 (Homo sapiens), P00519 [T315I]; conditions: Compound concentration 1000.0 nM
[42] = target: Serine/threonine-protein kinase PLK4 (Homo sapiens) (UniProt O00444); conditions: Compound concentration 1000.0 nM
[43] = target: 5'-AMP-activated protein kinase catalytic subunit alpha-1 (Homo sapiens) (UniProt Q13131); conditions: Compound concentration 1000.0 nM
[44] = target: Tyrosine-protein kinase ABL1 (Homo sapiens) (UniProt P00519); conditions: Compound concentration 1000.0 nM
[45] = target: Activin receptor type-1 (Homo sapiens) (UniProt Q04771); conditions: Compound concentration 1000.0 nM
Chain of Activin receptor type-1 (Homo sapiens) (Q04771 whole entry): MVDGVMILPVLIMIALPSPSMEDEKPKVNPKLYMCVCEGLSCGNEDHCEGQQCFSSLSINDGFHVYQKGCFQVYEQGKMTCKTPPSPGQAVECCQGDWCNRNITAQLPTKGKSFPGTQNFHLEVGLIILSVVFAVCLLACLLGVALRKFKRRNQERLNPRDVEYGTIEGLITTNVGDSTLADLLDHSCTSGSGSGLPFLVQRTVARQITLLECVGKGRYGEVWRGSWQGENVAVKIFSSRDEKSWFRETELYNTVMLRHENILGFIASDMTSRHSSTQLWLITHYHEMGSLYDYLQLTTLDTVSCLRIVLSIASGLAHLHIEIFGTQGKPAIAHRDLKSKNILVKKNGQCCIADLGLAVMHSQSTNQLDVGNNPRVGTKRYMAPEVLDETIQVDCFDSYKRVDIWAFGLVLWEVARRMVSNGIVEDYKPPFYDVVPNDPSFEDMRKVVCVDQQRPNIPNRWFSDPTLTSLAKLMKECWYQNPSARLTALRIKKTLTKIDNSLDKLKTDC

T1 sequence (P28223 whole entry): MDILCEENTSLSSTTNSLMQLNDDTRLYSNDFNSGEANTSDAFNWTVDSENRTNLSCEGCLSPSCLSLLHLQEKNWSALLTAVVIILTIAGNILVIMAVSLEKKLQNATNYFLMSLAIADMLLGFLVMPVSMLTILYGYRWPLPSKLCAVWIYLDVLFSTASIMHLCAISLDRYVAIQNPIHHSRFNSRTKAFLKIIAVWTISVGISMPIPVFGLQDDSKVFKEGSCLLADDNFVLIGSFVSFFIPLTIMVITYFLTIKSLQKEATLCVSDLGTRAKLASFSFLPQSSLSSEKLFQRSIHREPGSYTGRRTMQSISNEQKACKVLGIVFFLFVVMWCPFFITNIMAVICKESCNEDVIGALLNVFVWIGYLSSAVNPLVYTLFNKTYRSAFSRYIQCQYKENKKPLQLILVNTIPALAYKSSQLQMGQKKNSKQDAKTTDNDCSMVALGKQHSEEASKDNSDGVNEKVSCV
Chain of Tyrosine-protein kinase JAK1 (Homo sapiens) (P23458 whole entry): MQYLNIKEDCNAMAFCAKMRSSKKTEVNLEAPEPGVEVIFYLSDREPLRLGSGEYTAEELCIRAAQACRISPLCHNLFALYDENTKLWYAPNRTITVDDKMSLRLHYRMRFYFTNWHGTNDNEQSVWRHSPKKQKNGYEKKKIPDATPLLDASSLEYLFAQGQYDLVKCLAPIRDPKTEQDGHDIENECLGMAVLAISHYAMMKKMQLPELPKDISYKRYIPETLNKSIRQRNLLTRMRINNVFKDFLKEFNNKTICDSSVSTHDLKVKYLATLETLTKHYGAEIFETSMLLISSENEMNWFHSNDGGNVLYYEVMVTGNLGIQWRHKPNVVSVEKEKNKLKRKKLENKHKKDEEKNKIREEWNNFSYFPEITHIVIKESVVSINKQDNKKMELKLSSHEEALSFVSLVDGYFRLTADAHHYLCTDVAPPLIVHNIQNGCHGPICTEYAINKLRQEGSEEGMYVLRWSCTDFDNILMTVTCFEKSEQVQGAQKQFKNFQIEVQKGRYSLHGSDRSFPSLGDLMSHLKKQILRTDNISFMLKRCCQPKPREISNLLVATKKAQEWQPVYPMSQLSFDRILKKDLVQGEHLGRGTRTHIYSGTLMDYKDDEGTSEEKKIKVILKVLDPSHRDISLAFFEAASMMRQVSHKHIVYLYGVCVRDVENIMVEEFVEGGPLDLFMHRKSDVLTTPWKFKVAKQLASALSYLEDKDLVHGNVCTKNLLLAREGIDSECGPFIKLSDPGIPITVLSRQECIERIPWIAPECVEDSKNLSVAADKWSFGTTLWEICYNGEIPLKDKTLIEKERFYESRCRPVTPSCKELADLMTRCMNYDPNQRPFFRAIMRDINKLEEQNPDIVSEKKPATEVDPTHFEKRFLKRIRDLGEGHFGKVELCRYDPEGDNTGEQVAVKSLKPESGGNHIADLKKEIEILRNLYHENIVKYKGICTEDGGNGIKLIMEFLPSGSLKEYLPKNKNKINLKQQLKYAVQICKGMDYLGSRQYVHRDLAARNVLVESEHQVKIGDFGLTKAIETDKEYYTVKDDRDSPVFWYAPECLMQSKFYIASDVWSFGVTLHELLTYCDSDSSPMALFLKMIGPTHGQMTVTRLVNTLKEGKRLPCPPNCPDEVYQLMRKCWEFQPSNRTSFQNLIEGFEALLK
Chain of D(3) dopamine receptor (P35462 whole entry): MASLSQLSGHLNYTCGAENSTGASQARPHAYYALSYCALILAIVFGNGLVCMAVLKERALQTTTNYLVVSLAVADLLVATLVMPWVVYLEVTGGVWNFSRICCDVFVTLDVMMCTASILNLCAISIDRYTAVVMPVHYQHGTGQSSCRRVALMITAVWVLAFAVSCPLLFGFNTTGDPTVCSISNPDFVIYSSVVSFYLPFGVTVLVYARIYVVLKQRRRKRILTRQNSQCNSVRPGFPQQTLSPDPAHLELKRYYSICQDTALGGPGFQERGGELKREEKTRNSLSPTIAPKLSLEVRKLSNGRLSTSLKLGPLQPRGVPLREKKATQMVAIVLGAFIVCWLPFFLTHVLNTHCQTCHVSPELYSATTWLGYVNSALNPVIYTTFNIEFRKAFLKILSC
Chain of Tyrosine-protein kinase Mer (Homo sapiens) (Q12866 whole entry): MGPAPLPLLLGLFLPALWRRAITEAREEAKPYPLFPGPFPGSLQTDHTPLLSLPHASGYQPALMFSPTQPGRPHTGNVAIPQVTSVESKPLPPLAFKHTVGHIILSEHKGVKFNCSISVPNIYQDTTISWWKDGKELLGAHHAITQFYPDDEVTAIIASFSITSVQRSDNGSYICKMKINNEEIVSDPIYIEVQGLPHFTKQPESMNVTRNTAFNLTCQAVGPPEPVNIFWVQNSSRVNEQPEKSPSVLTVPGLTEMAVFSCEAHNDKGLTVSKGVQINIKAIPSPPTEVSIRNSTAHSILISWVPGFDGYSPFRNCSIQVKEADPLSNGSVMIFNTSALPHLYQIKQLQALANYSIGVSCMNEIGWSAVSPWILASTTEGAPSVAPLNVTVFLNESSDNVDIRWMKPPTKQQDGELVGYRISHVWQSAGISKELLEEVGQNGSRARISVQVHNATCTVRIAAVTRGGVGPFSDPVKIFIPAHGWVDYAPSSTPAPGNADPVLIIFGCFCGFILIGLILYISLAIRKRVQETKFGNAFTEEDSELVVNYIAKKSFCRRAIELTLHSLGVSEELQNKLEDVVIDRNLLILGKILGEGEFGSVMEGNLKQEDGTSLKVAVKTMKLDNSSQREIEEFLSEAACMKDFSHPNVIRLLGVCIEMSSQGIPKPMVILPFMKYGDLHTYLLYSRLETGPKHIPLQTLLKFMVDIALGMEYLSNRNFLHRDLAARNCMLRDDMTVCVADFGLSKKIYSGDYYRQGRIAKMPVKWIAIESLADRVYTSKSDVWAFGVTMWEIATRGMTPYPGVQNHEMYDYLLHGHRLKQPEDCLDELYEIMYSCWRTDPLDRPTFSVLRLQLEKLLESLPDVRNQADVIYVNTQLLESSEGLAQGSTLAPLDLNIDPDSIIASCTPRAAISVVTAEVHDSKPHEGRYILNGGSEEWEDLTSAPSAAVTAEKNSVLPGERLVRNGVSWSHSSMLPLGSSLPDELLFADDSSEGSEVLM
Chain of Ribosomal protein S6 kinase alpha-3 (Homo sapiens) (P51812 whole entry, canonical isoform): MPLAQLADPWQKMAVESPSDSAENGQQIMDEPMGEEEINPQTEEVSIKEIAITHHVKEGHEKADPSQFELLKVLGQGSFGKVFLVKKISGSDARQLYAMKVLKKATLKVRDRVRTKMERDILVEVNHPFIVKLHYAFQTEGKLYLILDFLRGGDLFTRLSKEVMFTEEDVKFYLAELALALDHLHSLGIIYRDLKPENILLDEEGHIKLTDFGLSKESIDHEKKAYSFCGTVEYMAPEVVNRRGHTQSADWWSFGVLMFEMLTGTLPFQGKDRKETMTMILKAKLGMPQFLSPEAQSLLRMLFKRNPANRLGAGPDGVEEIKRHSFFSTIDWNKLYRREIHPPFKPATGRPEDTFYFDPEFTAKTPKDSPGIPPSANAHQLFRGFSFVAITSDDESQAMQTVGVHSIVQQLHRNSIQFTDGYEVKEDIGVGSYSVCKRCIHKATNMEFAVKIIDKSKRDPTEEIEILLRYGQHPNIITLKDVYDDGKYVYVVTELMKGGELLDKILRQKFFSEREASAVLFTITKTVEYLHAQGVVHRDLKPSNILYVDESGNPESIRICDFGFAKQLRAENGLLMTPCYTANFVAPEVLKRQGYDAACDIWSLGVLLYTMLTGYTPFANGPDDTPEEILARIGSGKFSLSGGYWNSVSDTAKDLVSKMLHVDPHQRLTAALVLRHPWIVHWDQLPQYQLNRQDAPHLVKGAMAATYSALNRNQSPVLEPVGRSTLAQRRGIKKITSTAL
Chain of Tyrosine-protein kinase Srms (Homo sapiens) (Q9H3Y6 whole entry): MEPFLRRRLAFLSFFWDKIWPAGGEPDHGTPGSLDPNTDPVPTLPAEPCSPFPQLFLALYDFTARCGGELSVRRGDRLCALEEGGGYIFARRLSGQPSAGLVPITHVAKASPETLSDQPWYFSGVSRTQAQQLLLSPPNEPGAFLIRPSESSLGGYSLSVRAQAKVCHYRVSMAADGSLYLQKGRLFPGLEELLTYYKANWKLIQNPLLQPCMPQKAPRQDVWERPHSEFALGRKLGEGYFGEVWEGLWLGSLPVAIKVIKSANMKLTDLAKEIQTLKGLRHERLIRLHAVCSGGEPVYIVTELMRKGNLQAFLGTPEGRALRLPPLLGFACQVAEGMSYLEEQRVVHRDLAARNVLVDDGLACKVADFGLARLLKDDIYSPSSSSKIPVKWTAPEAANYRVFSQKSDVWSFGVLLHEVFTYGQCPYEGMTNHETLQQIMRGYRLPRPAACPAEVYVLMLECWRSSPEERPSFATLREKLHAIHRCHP

CNCc1ccccc1-c1csc([C@H](C)Nc2nc(C)nc3cc(OC)c(OC)cc23)c1 [BAY-294]
residual activity [1]: 100%
residual activity [2]: 100%
residual activity [3]: 93%
residual activity [4]: 91%
residual activity [5]: 84%
residual activity [6]: 99%
residual activity [7]: 80%
Ki ([8]; read-out: Ki): 0.0694 µM
residual activity [9]: 88%
residual activity [10]: 74%
residual activity [11]: 100%
residual activity [12]: 88%
inhibition [13]: 75%
residual activity [14]: 100%
residual activity [15]: 87%
residual activity [16]: 100%
residual activity [17]: 76%
residual activity [18]: 78%
residual activity [19]: 95%
residual activity [20]: 72%
inhibition [21]: 99.2%
residual activity [22]: 81%
residual activity [23]: 100%
residual activity [24]: 76%
inhibition [25]: 64.8%
residual activity [26]: 100%
residual activity [27]: 68%
residual activity [28]: 91%
residual activity [29]: 100%
residual activity [30]: 94%
residual activity [31]: 73%
residual activity [32]: 82%
residual activity [33]: 99%
inhibition [34]: 48%
residual activity [35]: 94%
residual activity [36]: 89%
residual activity [37]: 81%
residual activity [38]: 100%
residual activity [39]: 85%
residual activity [40]: 97%
residual activity [41]: 95%
residual activity [42]: 76%
residual activity [43]: 93%
residual activity [44]: 87%
residual activity [45]: 100%

CNCc1ccccc1-c1csc([C@@H](C)Nc2nc(C)nc3cc(OC)c(OC)cc23)c1 [BAY-293]
residual activity [1]: 100%
residual activity [2]: 100%
residual activity [3]: 78%
residual activity [4]: 80%
residual activity [5]: 85%
residual activity [6]: 100%
residual activity [7]: 76%
Ki ([8]; read-out: Ki): 0.133 µM
Ki ([8]; read-out: pKi (converted)): 0.11 µM
residual activity [9]: 92%
residual activity [10]: 71%
residual activity [11]: 100%
residual activity [12]: 80%
inhibition [13]: 66.1%
residual activity [14]: 86%
residual activity [15]: 76%
residual activity [16]: 91%
residual activity [17]: 71%
residual activity [18]: 76%
residual activity [19]: 82%
residual activity [20]: 61%
inhibition [21]: 98.5%
residual activity [22]: 85%
residual activity [23]: 100%
residual activity [24]: 69%
inhibition [25]: 56.8%
residual activity [26]: 95%
residual activity [27]: 73%
residual activity [28]: 81%
residual activity [29]: 99%
residual activity [30]: 84%
residual activity [31]: 79%
residual activity [32]: 100%
residual activity [33]: 89%
inhibition [34]: 56.5%
residual activity [35]: 92%
residual activity [36]: 100%
residual activity [37]: 100%
residual activity [38]: 100%
residual activity [39]: 80%
residual activity [40]: 81%
residual activity [41]: 100%
residual activity [42]: 74%
residual activity [43]: 100%
residual activity [44]: 80%
residual activity [45]: 100%
